Assay results from patent publication US20240336604A1 (THE UNITED STATES OF AMERICA, AS REPRESENTED BY THE …, priority 2021, published 2024).
“And” between values parts separate entries of the source, which are not always exact repeats. Equal entries are not always repeated.

Assays:
[1] = target: T1, D3 DAR (Homo sapiens, UniProt P35462); assay: [3H]-methylspiperone radioligand binding assay; details: single high 40 μM concentration
Protocol: Compounds were tested for their ability to compete with the orthosteric radioligand [^3H]-methylspiperone for binding to the D3 DAR using HEK cells transiently transfected with the D3 DAR as described in the detailed protocol below presented in Table 5. Cells were cultured in Dulbecco's modified Eagle's Medium (Corning, catalogue no. 10-013) containing 10% FBS, 1,000 units/mL Penicillin, […] Streptomycin, 100 mM sodium pyruvate, 1 μg/mL Gentamicin, and […] G418. All cells were maintained at 37° C. in 5% CO2 and 90% humidity. For radioligand binding assays cells were removed mechanically using calcium-free Earle's balanced salt solution (EBSS). Intact cells were collected by centrifugation and then lysed with 5 mM Tris-HCl and 5 mM MgCl2 at pH 7.4. Homogenates were centrifuged at 30,000×g for 30 minutes. The membranes were re-suspended in EBSS (US Biological, catalogue no. E0249-05) pH 7.4 to a concentration of 16 μg/mL. For competition binding studies, membrane preparations were incubated for 90 minutes at room temperature with various concentrations of compound and a single concentration of [^3H]-methylspiperone (Perkin Elmer, NET856) in a reaction volume of […]. Non-specific binding was determined in the presence of 4 μM (+)-butaclamol (Sigma-Aldrich, catalogue no. D033). Bound ligand was separated from unbound by filtration through GF/C filters using a PerkinElmer cell harvester and quantified on a Top-count (PerkinElmer). Ki values were determined using Cheng-Prusoff equation from observed IC50 values and ligand Kd values from separate saturation experiments.

[2] = target: T1, D3 DAR; assay: Go BRET activation assay, D3 DAR; assay type: cell-based; details: EC80 DA (30 nM)
Protocol: Briefly, HEK293T cells transiently expressing either the D2 DAR or D3 DAR and GαoA-Rluc8, untagged-β1, and mVenus-γ2 were harvested with EBSS, plated in 96-well white plates at 20,000 cells/well in DPBS and incubated at RT for 45 min. […] BRET signal was determined by quantifying and calculating the ratio of the light emitted by mVenus (525 nm) over that emitted by RLuc8 (485 nm) using a PHERAstar FSX Microplate Reader (BMG Labtech).

[3] = target: T1, D3 DAR; assay: DiscoverX D3 DAR β-arrestin recruitment assay; assay type: cell-based; design: host or cells: CHO; details: for Emax: Imax=maximum inhibition, EC80 DA (30 nM)
Source text: (§1) A D3 DAR β-arrestin cell line from DiscoverX (Fremont, CA) was used as described in the protocol below (Table 2). A CHO cell line engineered to overexpress the D3 DAR fused with a small 42-amino acid fragment of β-galactosidase called ProLink™ and a fusion protein consisting of β-arrestin and a larger N-terminal deletion mutant of β-galactosidase was used (DiscoverX catalogue number 93-0579C2). When the D3 DAR is activated by dopamine, it stimulates binding of β-arrestin to ProLink-tagged D3 DARs, and the two complementary parts of β-galactosidase form a functional enzyme. When substrate (PathHunter® Detection reagent, DiscoverX 93-0001) is added, β-galactosidase hydrolyzes it and generates a chemiluminescent signal.

[4] = target: D2 DAR (Homo sapiens, UniProt P14416); assay: DiscoverX D2 DAR β-arrestin recruitment assay; assay type: cell-based; design: host or cells: CHO; details: for D2 DAR Imax / IC50: EC80 concentration of DA (1 μM)
Chain of D2 DAR (P14416 whole entry, the tested form may be a part): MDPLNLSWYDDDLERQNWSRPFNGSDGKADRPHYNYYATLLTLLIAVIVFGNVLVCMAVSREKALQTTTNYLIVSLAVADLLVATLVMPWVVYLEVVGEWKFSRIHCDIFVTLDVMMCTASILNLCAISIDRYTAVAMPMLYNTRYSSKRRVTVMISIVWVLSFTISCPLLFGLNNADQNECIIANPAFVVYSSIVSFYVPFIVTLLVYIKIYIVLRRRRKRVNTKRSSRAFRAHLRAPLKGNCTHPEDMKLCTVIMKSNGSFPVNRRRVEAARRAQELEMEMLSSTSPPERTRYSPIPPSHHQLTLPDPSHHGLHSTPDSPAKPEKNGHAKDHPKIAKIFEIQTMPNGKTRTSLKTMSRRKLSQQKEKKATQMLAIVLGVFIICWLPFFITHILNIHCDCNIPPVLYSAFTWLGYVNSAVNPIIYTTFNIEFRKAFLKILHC
Source text: For a secondary-screen and selectivity assays, DAR PathHunter®-arrestin GPCR cell lines from DiscoverX (Fremont, CA) were used. In the D2 DAR PathHunter®-arrestin GPCR cell line, the D2 DAR is overexpressed and fused with a small 42-amino acid fragment of β-galactosidase called ProLink™ on a CHO cellular background expressing a fusion protein of β-arrestin and a larger N-terminal deletion mutant of β-galactosidase (“enzyme acceptor”). When the D2 DAR is activated by dopamine, it stimulates binding of β-arrestin to the ProLink-tagged DAR and the two complementary parts of β-galactosidase form a functional enzyme. When substrate (PathHunter™ Detection reagent) is added, β-galactosidase hydrolyzes it and generates a chemiluminescent signal.

[5] = Mouse plasma and brain pharmacokinetic study; assay type: in vivo; details: male CD1 mice, single 40 mg/kg i.p.
Protocol: Mouse Plasma and Brain Tissue Sampling: The pharmacokinetic study was conducted by CRO Pharmaron (Beijing, China). The levels of cmp 17 in mouse plasma and brain tissue samples were assessed as follows. A single IP dose (40 mg/kg) of cmp 17 was administered to male CD1 mice. The formulation consisted of NMP/Solutol/PEG-400/normal saline (v/v/v/v, 10:5:30:55). Plasma and brain samples were collected 0.5 h, 1 h, 2 h, 4 h and 8 h post dose. Brain samples were homogenized at a ratio of 1:3 with PBS (W/V, 1:3). The desired serial concentrations of working solutions were achieved by diluting stock solution of analyte with 50% acetonitrile in water solution. 10 μL of working solutions (0.5, 1, 2, 5, 10, 50, 100, 500, 1000, 10000 ng/mL) were added to 10 μL of the blank CD1 mouse plasma/brain homogenate to achieve calibration standards of 0.5-10000 ng/mL (0.5, 1, 2, 5, 10, 50, 100, 500, 1000, 10000 ng/mL) in a total volume of 20 μL. Five quality control samples at 1 ng/mL, 2 ng/mL, 5 ng/mL, 100 ng/mL and 8000 ng/mL for plasma/brain homogenate were prepared independently of those used for the calibration curves. […] After centrifugation at 4° C., 4700 rpm for 15 min, the supernatant was diluted at a ratio of 1:2 with water, and 10 μL of diluted supernatant was injected into the LC/MS/MS system (SCIEX AB API 4000) for quantitative analysis. […]

[6] = target: T1, D3 DAR; assay: Functional curve-shift assays using the DiscoverX β-arrestin recruitment assay; assay type: cell-based; design: host or cells: CHO
Source text: To further assess the mechanism of action of Cmp. […] 1 (FIGS. 4B and 4D). […] Average curves are shown (mean±SEM from at least 3 experiments each performed in triplicate). […] In contrast, increasing concentrations of Cmp.
1. FIG. 6A-C panels show concentration-response curves of dopamine in the absence or presence of increasing concentrations of compound. Cmp. […] 18 (FIG. 6A), Cmp. 5 (FIG. 6B), and Cmp. 17 (FIG. 6C), respectively. Average curves are shown (mean±SEM from at least 3 experiments, each performed in triplicate).
as §1

[7] = EC80 concentration of DA (30 nM), read-out: D3 DAR IC50

T1 sequence (P35462 whole entry): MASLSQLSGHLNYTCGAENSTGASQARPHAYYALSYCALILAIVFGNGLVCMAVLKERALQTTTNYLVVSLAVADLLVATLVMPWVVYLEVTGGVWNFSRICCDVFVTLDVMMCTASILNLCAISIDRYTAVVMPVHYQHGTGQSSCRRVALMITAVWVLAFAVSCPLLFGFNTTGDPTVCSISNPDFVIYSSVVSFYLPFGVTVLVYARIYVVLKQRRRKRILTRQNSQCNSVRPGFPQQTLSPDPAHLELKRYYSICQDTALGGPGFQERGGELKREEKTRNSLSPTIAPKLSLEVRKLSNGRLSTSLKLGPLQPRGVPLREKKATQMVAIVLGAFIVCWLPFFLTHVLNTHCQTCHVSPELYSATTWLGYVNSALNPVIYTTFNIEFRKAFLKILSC

| SMILES | inhibition of [3H]-methylspiperone binding to the D3 DAR [1] | IC50 [2] [µM] | IC50 ([3]; DiscoverX β-arrestin assay, FIG. 1A, 2A, read-out: IC50, inhibition of dopamine-stimulated β-arrestin recruitment to the D3 DAR) | IC50 [3, 7] [µM] | Emax [3] [%] | antagonism of dopamine activation of the D2 DAR ([4]; DiscoverX β-arrestin assay, FIG. 2B) | D2 DAR Imax [4] | IC50 [4] [µM] | Emax ([2]; 5 min, read-out: D3 Go BRET Imax) [%] | brain penetration [5] | half-life ([5]; mouse, in vivo, ip) [h] | IC50 ([6]; agonist dopamine, read-out: Functional IC50 for decreasing the Emax of dopamine) [µM] | mode of antagonism in curve-shift assays ([6]; versus agonist (dopamine, pramipexole)) |
| --- | --- | --- | --- | --- | --- | --- | --- | --- | --- | --- | --- | --- | --- |
| CCOC(=O)C1=NOC2(C1)C(=O)Nc1ccc(OC(F)(F)F)cc12 (racemic) [Cmp. 25, Ethyl 2-oxo-5-(trifluoromethoxy)-4′H-spiro[indoline-3,5′-isoxazole]-3′-carboxylate] | neither compound exhibited measurable ability to inhibit the binding | > 50 | ~13 µM and ~15 µM | 10 to 50 | 80 to 100 | lacks ability to antagonize dopamine activation | NA (“NA” indicates not active) | > 100 |  |  |  |  |  |
| Cc1[nH]c(C)c(S(=O)(=O)Nc2ccc(C(F)(F)F)c(Cl)c2)c1C(=O)N1CCC(F)(F)C1 [Cmp. 17, N-(3-chloro-4-(trifluoromethyl)phenyl)-4-(3,3-difluoropyrrolidine-1-carbonyl)-2,5-dimethyl-1H-pyrrole-3-sulfonamide] |  |  |  | < 10 | 80 to 100 |  | NA (“NA” indicates not active) | > 100 | > 100 | brain penetrant | ~4 | 1.7 | noncompetitive antagonism |
